Data from US11261190B2, “Dihydropyrimidine compounds and uses thereof in medicine” (SUNSHINE LAKE PHARMA CO., LTD., priority 2017, dated 2022).

Experiments:
HBV = test: Anti HBV activity in vitro, viral DNA from HepG2.2.15 cells quantified by qPCR; assay type: cell-based; settings: Hepatitis B virus, qPCR of viral DNA in supernatant, read-out: EC50 against HBV replication
Method: Test 1: Test Method of EC50 of Anti HBV
HBV Cell Line and Culture Conditions
HepG2.2.15 (SELLS, PNAS, 1987 and SELLS, JV, 1988) chromosomes have an integrated complete HBV genome, and stably express viral RNA and viral protein. HepG2.2.15 cells can secrete mature HBV particles, HBsAg and HBeAg to medium. HepG2.2.15 cells were cultured in DMEM containing 10% fetal bovine serum, 100 U/mL penicillin, 100 U/mL streptomycin, 1% non essential amino acid, 1 mM sodium pyruvate and 300 µg/mL G418.
Viral particles DNA secreted from HepG2.2.15 cells can be quantified by qPCR, and the effect of the compound on viral replication can be detected.
Test of Anti HBV Activity In Vitro
8000 HepG 2.2.15 cells per well were seeded into a 96-well plate, the plate was cultured at 37° C. and 5% CO2 for 3 days till the cells grew to full wells. Old liquid medium can be removed and replaced with new medium (200 μL) on day 0.
Formulating the compound and treating the cells in the experiment of anti virus: the compound was dissolved in DMSO to a concentration of 30 mM, and then the compound solution was diluted with DMSO to a concentration of […], and then eight dilutions at 4 fold were performed, the highest concentration is 800 μM. The serial diluted compound was added to the above plate at 1 μL per well, the highest final concentration in the experiment is 4 μM (200 fold dilution). TDF (tenofovir dipiroxil fumarate, Selleck, Cat S1400) has a highest concentration of 4 μM as a positive control. 1 μL of DMSO was added in to the positive control well at a final concentration of 0.5%, TDF was added in to the positive control well at a final concentration of 1 μM.
Detection of Viral Genomic DNA by qPCR
Primer: HBV-For-202, […]; HBV-Rev-315, […]. Copies of virus can be calculated using a standard curve plotted by using plasmid containing HBV genome and using SYBR Premix Ex Taq II Takara DRR081S kit and 1 μL cell culture supernatant as a template. EC50 values of the compound on viral replication were calculated by a four parametric nonlinear regression model using Graphpad Prism 5 software to manage concentration—viral copy number.

[1] = Cytotoxicity in HepG2.2.15 cells (CellTiter Glo); assay type: cell-based; settings: human, highest concentration 150 μM
Method: Test 2: Cytotoxicity and Selectivity Index
Methods of Testing Cytotoxicity and Selectivity Index
The serial diluted compound was added to a 384 wells plate at 50 μL HepG2.2.15 cell per well (3000 cells per well), the highest final concentration in the experiment is 150 μM (200 fold dilution). The plate was cultured at 37° C. in an incubator with C02 for 4 days, and cytotoxicity of the compound was detected using CellTiter Glo agent.
The cytotoxicity of the compound was calculated using the following formulate, cytotoxicity (%)=100−(detection value/mean of DMSO control wells values×100). CC50 values were calculated by a four parametric nonlinear regression model using Graphpad Prism 5 software to manage concentration−cytotoxicity (%). […]

| SMILES | EC50 (HBV) | CC50 at 4 days [1] |
| --- | --- | --- |
| COC(=O)C1=C(CN2CCN3C(=O)N(c4ccc(C(C)(C)C(=O)O)cc4)C[C@@H]3C2)NC(c2nccs2)=N[C@H]1c1ccc(F)cc1Cl [Example 15, 2-(4-((S)-7-(((R)-6-(2-chloro-4-fluorophenyl)-5-(methoxycarbonyl)-2-(thiazol-2-yl)-3,6-dihydropyrimidin-4-yl)methyl)-3-oxohexahydroimidazo[1,5-a]pyrazin-2(3H)-yl)phenyl)-2-methylpropionic Acid] | 5 nM | > 150000 nM |
| CCOC(=O)C1=C(CN2CCN3C(=O)N(c4ccc(CC(=O)O)cc4)C[C@@H]3C2)NC(c2nccs2)=N[C@H]1c1ccc(F)cc1Br [Example 26, 2-(4-((S)-7-(((R)-6-(2-bromo-4-fluorophenyl)-5-(ethoxycarbonyl)-2-(thiazol-2-yl)-3,6-dihydropyrimidin-4-yl)methyl)-3-oxohexahydroimidazo[1,5-a]pyrazin-2(3H)-yl)phenyl)acetic Acid] | 8 nM | > 150000 nM |
| COC(=O)C1=C(CN2CCN3C(=O)N(c4nc(CCC(=O)O)cs4)C[C@@H]3C2)NC(c2nccs2)=N[C@H]1c1ccc(F)cc1Cl [Example 20, 3-(2-((S)-7-(((R)-6-(2-chloro-4-fluorophenyl)-5-(methoxycarbonyl)-2-(thiazol-2-yl)-3,6-dihydropyrimidin-4-yl)methyl)-3-oxohexahydroimidazo[1,5-a]pyrazin-2(3H)-yl)thiazol-4-yl)propionic Acid] | 5 nM | > 150000 nM |
| COC[C@@H]1[C@H]2CN(c3ccc(CCC(=O)O)cc3)C(=O)N2CCN1CC1=C(C(=O)OC)[C@H](c2ccc(F)cc2Cl)N=C(c2nccs2)N1 [Example 51B] | 9 nM | > 150000 nM |
| COC(=O)C1=C(CN2CCN3C(=O)N(c4ccc(CCC(=O)O)cc4)C[C@@H]3C2)NC(c2nccn2C)=NC1c1ccc(F)cc1Cl (stereo partly drawn) [Example 45, 3-(4-((8aS)-7-((-6-(2-chloro-4-fluorophenyl)-5-(methoxycarbonyl)-2-(1-methyl-1H-imidazol-2-yl)-3,6-dihydropyrimidin-4-yl)methyl)-3-oxohexahydroimidazo[1,5-a]pyrazin-2(3H)-yl)phenyl)propionic Acid] | 8 nM | > 150000 nM |
| COC(=O)C1=C(CN2CCN3C(=O)N(c4ccc(CCC(=O)O)cc4F)C[C@@H]3C2)NC(c2nccs2)=N[C@H]1c1ccc(F)cc1Cl [Example 34, 3-(4-((S)-7-(((R)-6-(2-chloro-4-fluorophenyl)-5-(methoxycarbonyl)-2-(thiazol-2-yl)-3,6-dihydropyrimidin-4-yl)methyl)-3-oxohexahydroimidazo[1,5-a]pyrazin-2(3H)-yl)-3-fluorophenyl)propionic Acid] | 16 nM | > 150000 nM |
| COC(=O)C1=C(CN2CCN3C(=O)N(c4ccc(CC(C)C(=O)O)cc4)C[C@@H]3C2)NC(c2nccs2)=N[C@H]1c1ccc(F)cc1Cl (stereo partly drawn) [Example 18, 3-(4-((S)-7-(((R)-6-(2-chloro-4-fluorophenyl)-5-(methoxycarbonyl)-2-(thiazol-2-yl)-3,6-dihydropyrimidin-4-yl)methyl)-3-oxohexahydroimidazo[1,5-a]pyrazin-2(3H)-yl)phenyl)-2-methylpropionic Acid] | 4 nM | > 150000 nM |
| COC(=O)C1=C(CN2CCN3C(=O)N(c4ccc(OC(C)(C)C(=O)O)cc4)C[C@@H]3C2)NC(c2nccs2)=N[C@H]1c1ccc(F)cc1Cl [Example 40, 2-(4-((S)-7-(((R)-6-(2-chloro-4-fluorophenyl)-5-(methoxycarbonyl)-2-(thiazol-2-yl)-3,6-dihydropyrimidin-4-yl)methyl)-3-oxohexahydroimidazo[1,5-a]pyrazin-2(3H)-yl)phenoxy)-2-methylpropionic Acid] | 71 nM | > 150000 nM |
| COC(=O)C1=C(CN2CCN3C(=O)N(c4ccc(CCC(N)=O)cc4)C[C@@H]3C2)NC(c2nccs2)=N[C@H]1c1ccc(F)cc1Cl [Example 48, (R)-methyl 6-(((S)-2-(4-(3-amino-3-oxopropyl)phenyl)-3-oxohexahydroimidazo[1,5-a]pyrazin-7(1H)-yl)methyl)-4-(2-chloro-4-fluorophenyl)-2-(thiazol-2-yl)-1,4-dihydropyrimidine-5-carboxylate] | 10 nM | > 150000 nM |
| COC(=O)C1=C(CN2CCN3C(=O)N(c4ccc(C(C)=O)cc4F)C[C@@H]3C2)NC(c2nccs2)=N[C@H]1c1ccc(F)cc1Cl [Example 32, (R)-methyl 6-(((S)-2-(4-acetyl-2fluorophenyl)-3-oxohexahydroimidazo[1,5-a]pyrazin-7(1H)-yl)methyl)-4-(2-chloro-4-fluorophenyl)-2-(thiazol-2-yl)-1,4-dihydropyrimidine-5-carboxylate] | 6 nM | > 150000 nM |
| CCOC(=O)C1=C(CN2CCN3C(=O)N(c4ccc(CCC(=O)O)cc4)C[C@@H]3C2)NC(c2nccs2)=N[C@H]1c1ccc(F)cc1Cl [Example 23, 3-(4-((S)-7-(((R)-6-(2-chloro-4-fluorophenyl)-5-(ethoxycarbonyl)-2-(thiazol-2-yl)-3,6-dihydropyrimidin-4-yl)methyl)-3-oxohexahydroimidazo[1,5-a]pyrazin-2(3H)-yl)phenyl)prop ionic Acid] | 7 nM | > 150000 nM |
| COC(=O)C1=C(CN2CCN3C(=O)N(c4nc(/C=C/C(=O)O)cs4)C[C@@H]3C2)NC(c2nccs2)=N[C@H]1c1ccc(F)cc1Cl [Example 52, (E)-3-(2-((S)-7-(((R)-6-(2-chloro-4-fluorophenyl)-5-(methoxycarbonyl)-2-(thiazol-2-yl)-3,6-dihydropyrimidin-4-yl)methyl)-3-oxohexahydroimidazo[1,5-a]pyrazin-2(3H)-yl)-thiazol-4-yl)acrylic Acid] | 13 nM | > 150000 nM |
| COC(=O)C1=C(CN2CCN3C(=O)N(c4ccc(CCC(=O)O)cc4)C[C@@H]3C2)NC(c2nccs2)=N[C@H]1c1ccc(Cl)cc1Cl [Example 24, 3-(4-((S)-7-(((R)-6-(2,4-dichlorophenyl)-5-(methoxycarbonyl)-2-(thiazol-2-yl)-3,6-dihydropyrimidin-4-yl)methyl)-3-oxohexahydroimidazo[1,5-a]pyrazin-2 (3H)-yl)phenyl)propionic Acid] | 4 nM | > 150000 nM |
| COC(=O)C1=C(CN2CCN3C(=O)N(c4ccc(C(C)(C)C(=O)O)cc4F)C[C@@H]3C2)NC(c2nccs2)=N[C@H]1c1ccc(F)cc1Cl [Example 33, 2-(4-((S)-7-(((R)-6-(2-chloro-4-fluorophenyl)-5-(methoxycarbonyl)-2-(thiazol-2-yl)-3,6-dihydropyrimidin-4-yl)methyl)-3-oxohexahydroimidazo[1,5-a]pyrazin-2(3H)-yl)-3-fluorophenyl)-2-methylpropionic Acid] | 25 nM | > 150000 nM |
| CCOC(=O)C1=C(CN2CCN3C(=O)N(c4ccc(CCC(=O)O)cc4)C[C@@H]3C2)NC(c2nccs2)=N[C@H]1c1ccc(F)cc1Br [Example 22, 3-(4-((S)-7-(((R)-6-(2-bromo-4-fluorophenyl)-5-(ethoxycarbonyl)-2-(thiazol-2-yl)-3,6-dihydropyrimidin-4-yl)methyl)-3-oxohexahydroimidazo[1,5-a]pyrazin-2(3H)-yl)phenyl)prop ionic Acid] | 5 nM | > 150000 nM |
| CCOC(=O)C1=C(CN2CCN3C(=O)N(c4ccc(CC(C)(C)C(=O)O)cc4)C[C@@H]3C2)NC(c2nccs2)=N[C@H]1c1ccc(F)cc1Br [Example 28] | 5 nM | > 150000 nM |
| COC(=O)C1=C(CN2CCN3C(=O)N(c4ccc(/C(C)=C/C(=O)O)cc4)C[C@@H]3C2)NC(c2nccs2)=N[C@H]1c1ccc(F)cc1Cl [Example 54, (E)-3-(4-((S)-7-(((R)-6-(2-chloro-4-fluorophenyl)-5-(methoxycarbonyl)-2-(thiazol-2-yl)-3,6-dihydropyrimidin-4-yl)methyl)-3-oxohexahydroimidazo[1,5-a]pyrazin-2(3H)-yl)phenyl)-2-butenoic Acid] | 11 nM | > 150000 nM |
